Results on 17 molecules are retold here after patent US6160011A (priority 1998, dated 2000).

The conditions of data set [1]: cited from earlier work.
Data set [2] concerns androgen receptor (in vivo functional activity). The note with it: vs other antiandrogen therapies; cited from earlier work.
The target of data set [3] is T1, cytosolic androgen receptor (AR) (Rattus norvegicus, UniProt P15207).
T1 construct: The supernatant (cytosol) containing AR protein was removed and stored; from tissue; host or cells: ventral prostate cytosol of castrated male Sprague-Dawley rats
T1 sequence (P15207 1-902): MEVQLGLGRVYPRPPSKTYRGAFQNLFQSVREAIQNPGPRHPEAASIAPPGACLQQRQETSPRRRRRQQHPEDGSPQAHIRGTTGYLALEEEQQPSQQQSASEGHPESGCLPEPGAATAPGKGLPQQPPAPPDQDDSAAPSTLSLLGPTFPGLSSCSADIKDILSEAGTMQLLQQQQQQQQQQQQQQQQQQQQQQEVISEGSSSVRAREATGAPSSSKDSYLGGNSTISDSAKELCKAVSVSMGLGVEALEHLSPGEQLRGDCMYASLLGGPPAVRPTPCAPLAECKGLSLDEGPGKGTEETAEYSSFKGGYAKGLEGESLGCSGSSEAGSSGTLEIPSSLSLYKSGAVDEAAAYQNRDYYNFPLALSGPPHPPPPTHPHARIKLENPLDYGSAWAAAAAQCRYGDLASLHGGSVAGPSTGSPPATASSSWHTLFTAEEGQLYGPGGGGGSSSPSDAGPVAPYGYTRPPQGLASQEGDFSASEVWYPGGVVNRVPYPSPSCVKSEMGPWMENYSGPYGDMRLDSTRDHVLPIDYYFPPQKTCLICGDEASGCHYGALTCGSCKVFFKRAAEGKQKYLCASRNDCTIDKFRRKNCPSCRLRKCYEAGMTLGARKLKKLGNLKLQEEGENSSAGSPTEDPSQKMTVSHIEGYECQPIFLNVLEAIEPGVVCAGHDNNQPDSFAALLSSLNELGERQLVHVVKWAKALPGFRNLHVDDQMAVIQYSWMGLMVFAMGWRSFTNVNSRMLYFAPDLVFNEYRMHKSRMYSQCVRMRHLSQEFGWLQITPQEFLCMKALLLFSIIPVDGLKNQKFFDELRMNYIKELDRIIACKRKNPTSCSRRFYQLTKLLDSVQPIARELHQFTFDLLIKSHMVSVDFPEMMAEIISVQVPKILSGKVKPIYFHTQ
The experiment in a line: Saturation binding of 3H-MIB to AR in cytosol (Scatchard). Details: species or system Sprague-Dawley rats. To be noted: mean±S.D., n=3; 4° C., 18 hours.

Data set [4] deals with AR. Nature of the data set: Covalent (irreversible) binding to the AR. The note with it: studies not described.
The target of data set [5] is T1, cytosolic androgen receptor (AR). The experiment in a line: biochemical. The data set is classed as binding, Sprague-Dawley rats.
For data set [6], the system named is AR (plasmid pCMVhAR) in CV-1 cells. The experiment in a line: Transcriptional activation (AR-mediated luciferase reporter, cotransfected CV-1 cells). The class given is cell-based. The note with it: for minimal effective concentration: read-out: Potency: lowest concentration of the ligand capable of maximally stimulating AR-mediated transcription. As for the experimental part: The agonist activity of each ligand was examined using transfected CV-1 cells (American Type Culture Collection, Rockville, Md.). CV-1 cells were maintained in DMEM containing 10% FBS at 37° C. in a humidified atmosphere containing 5% carbon dioxide. DMEM without phenol red was used during transfection studies. One day before transfection, monolayer cells were removed from flasks and plated at a density of 4.5×10^5 cells/well in 6-well tissue culture plates. Cells in each well were then cotransfected with 100 ng of an AR expression vector (plasmid pCMVhAR; provided by Dr. Elizabeth Wilson at The University of North Carolina, Chapel Hill, N.C.), 2.5 μg of a luciferase reporter vector (plasmid pMMTV-Luc; provided by Dr. Ronald Evans at The Salk Institute, San Diego, Calif.), and 2.5 μg of a control β-galactosidase vector (plasmid pSV-β-galactosidase; Promega Corporation, Madison, Wis.). Transfection was performed using Lipofectamine™ according to the manufacturer's instructions (Life Technologies, Gaithersburg, Md.). Ten hours after adding the transfection reagent, cells were washed twice with DMEM containing 0.2% FBS and then returned to the incubator. After an additional 10 to 12 hours of incubation, the medium was removed and replaced with DMEM containing 0.2% FBS and various concentrations of DHT or the ligand of interest. Final ligand concentrations were 0.1, 1, 10, 50, 100, 500, and 1,000 nM. The drug-containing medium was replaced after 24 hours of incubation to minimize the possible effects of ligand degradation on measurement of transcriptional activation. Control studies in which neither DHT nor ligand were added to the medium were also performed. Cells were washed with phosphate buffered saline, pH 7.4, after 48 hours of drug treatment and harvested using 350 μL of reporter lysis buffer (Promega Corporation, Madison, Wis.). Cell lysates were transferred to a microcentrifuge tube, vortexed briefly, and centrifuged at 12,000 g for 2 minutes; An aliquot (150 μL) of supernatant was used for determination of β-galactosidase activity in each well using a spectrophotometer (Cary Model 1E, Varian Associates, Sunnyvale, Calif.) set at a wavelength of 420 nm. A separate aliquot (100 μL) was used for determination of luciferase activity assay (Luciferase Assay System, Promega Corporation, Madison, Wis.) using an automated luminometer (Model AutoLumat LB953, Wallac Inc., Gaithersburg, Md.). Viable cell numbers and transfection efficiency in each well were normalized by expressing the transcriptional activation as a ratio of the luciferase activity to β-galactosidase activity in individual wells. […] All experiments were performed in triplicate. Potency was reported as the lowest concentration of the ligand used during transfection experiments capable of producing maximal AR-mediated transcriptional activation.
In general terms: In a reporter assay the amount or activity of a reporter protein is the signal.

Data set [7] deals with sperm production in men. The note with it: cited from earlier work.
For data set [8] the following is noted: oral administration; cited from earlier work.
Where [9] appears, read: 3H-MIB 1 nM, 4° C., 18 hours, R-isomers of C-1 to C-5, read-out: Ki (Table 1).
The mark [10] stands for this setting: CV-1, 48 h, read-out: Agonist Activity (% of DHT): maximal percentage of transcriptional activation observed for each ligand.
The mark [11] stands for this setting: CV-1, read-out: agonist activity.
[12] abbreviates: healthy male volunteers, single oral dose of the racemic mixture.

The structures appear in SMILES notation. Read-outs that look alike come from different tables or passages of the source. Bounds are passed on as bounds.

In the case of `CC(O)(CS(=O)(=O)c1ccc(F)cc1)C(=O)Nc1ccc(C#N)c(C(F)(F)F)c1` (racemic) [Casodex], in data set [1] (after oral administration), the oral absorption result was “well absorbed after oral administration”. In data set [1] (in man), the biological half-life is 6 days. Also, the “tolerance (in words)” value in data set [2] is given as “improved tolerance”.

With `C[C@@H]1CC2=CC(=O)CC[C@@H]2[C@H]2CC[C@@]3(C)[C@@H](CC[C@]3(C)O)[C@@H]21` [3H-MIB, (17α-methyl-^3 H)-Mibolerone], the Kd (as a rule, the concentration at which binding is half-saturated) in data set [3] stood at 0.19 ± 0.01 nM.

As to `C[C@](O)(CSc1ccc(NC(=O)CCl)cc1)C(=O)Nc1ccc(C#N)c(C(F)(F)F)c1` [C-1 (R)], the “covalent (irreversible) binding to AR” value in data set [4] was “does not covalently (i.e., irreversibly) bind the AR”.

For the molecule `C[C@](O)(CBr)C(=O)Nc1ccc(C#N)c(C(F)(F)F)c1` [C-2], the Ki – broadly, a measure of affinity in units of concentration, obtained from inhibition or displacement – in data set [5] (setting [9]) amounted to 7.98 ± 0.86 nM. Besides, the Emax in data set [6] (setting [10]) was 18.5 ± 5.08%; in data set [6] (setting [11]), under 20%. The minimal effective concentration in data set [6] (CV-1, 48 h) was determined as 0.5 µM.

Regarding `C[C@](O)(CI)C(=O)Nc1ccc(C#N)c(C(F)(F)F)c1` [C-4], the Ki in data set [5] (setting [9]) was 2.79 ± 1.35 nM. Further, the figures for the Emax in data set [6] (setting [10]) and in data set [6] (setting [11]) were 20.5 ± 7.57% and under 20%, respectively. For the same molecule, the minimal effective concentration in data set [6] (CV-1, 48 h) was 0.5 µM.

Take `C[C@](O)(CI)C(=O)Nc1ccc([N+](=O)[O-])c(C(F)(F)F)c1` [C-5]: in data set [5] (setting [9]), the Ki came to 0.86 ± 0.11 nM. Besides, the Emax in data set [6] (setting [10]) is 88.6 ± 18%. Further, the minimal effective concentration in data set [6] (CV-1, 48 h) is 0.5 µM.

On to `CC(=O)Nc1ccc(S(=O)(=O)C[C@](C)(O)C(=O)Nc2ccc(C#N)c(C(F)(F)F)c2)cc1` [C-7], for which, in data set [5], the affinity, expressed as Ki, was 1.7 nM and the “RBA (%): (IC50 of DHT)/(IC50 of a ligand)*100%” value (“RBA (%)” below) is 15.9%.

For `CC(=O)Nc1ccc(SC[C@](C)(O)C(=O)Nc2ccc(C#N)c(C(F)(F)F)c2)cc1` [C-8 (R)], in data set [5], the affinity, expressed as Ki, was 1 nM and the “RBA (%)” value is recorded as 26.9%.

As to `CC(=O)Nc1ccc(SC[C@@](C)(O)C(=O)Nc2ccc(C#N)c(C(F)(F)F)c2)cc1` [C-8 (S)], in data set [5], the Ki was 141 nM and the “RBA (%)” value is listed as 0.19%.

For the molecule `CC(=O)N(C(C)=O)c1ccc(SC[C@](C)(O)C(=O)Nc2ccc(C#N)c(C(F)(F)F)c2)cc1` [C-9], in data set [5], the affinity, expressed as Ki, was 2.64 nM and the “RBA (%)” value was found to be 10.2%.

For `CCC(=O)Nc1ccc(SC[C@](C)(O)C(=O)Nc2ccc(C#N)c(C(F)(F)F)c2)cc1` [C-10], in data set [5], the Ki was 3.81 nM and the “RBA (%)” value is reported as 7.08%.

Turning to `CCC(=O)N(C(=O)CC)c1ccc(SC[C@](C)(O)C(=O)Nc2ccc(C#N)c(C(F)(F)F)c2)cc1` [C-11], in data set [5], the Ki was over 1000 nM and the “RBA (%)” value was under 0.10%.

As to `C[C@]12CCC(=O)C[C@@H]1CC[C@@H]1[C@@H]2CC[C@]2(C)[C@@H](O)CC[C@@H]12` [DHT, dihydrotestosterone, reference compound], the Emax in data set [6] (setting [10]) was determined as 100%.

In the case of `C[C@](O)(CS(=O)(=O)c1ccc(F)cc1)C(=O)Nc1ccc(C#N)c(C(F)(F)F)c1` [R-Bicalutamide, reference compound], the “AR-mediated transcriptional activation (in words)” value in data set [6] is given as “unable to stimulate AR-mediated transcriptional activation at even the highest concentrations tested”. Also, the Emax in data set [6] (setting [10]) came to 8.28 ± 2.66%. The Emax at 1 µM in data set [6] (CV-1, read-out: mean agonist activity at 1,000 nM) was determined as 8.3%. The elimination half-life in data set [1] (setting [12]) was 101 h.

Regarding `C[C@@](O)(CS(=O)(=O)c1ccc(F)cc1)C(=O)Nc1ccc(C#N)c(C(F)(F)F)c1` [S-Casodex], in data set [1] (setting [12]), the “elimination half-life (t1/2)” value is 19 h.

On to `CCCCCCC(=O)O[C@H]1CC[C@H]2[C@@H]3CCC4=CC(=O)CC[C@]4(C)[C@H]3CC[C@]12C` [testosterone enanthate], for which the “testosterone peak levels after injection (in words)” value in data set [7] (immediately following intramuscular injection) is “supraphysiologic peak levels of testosterone”. Moreover, the “azoospermia or severe oligospermia (less than 3 million sperm per ml) and infertility, share of men” value in data set [7] (weekly intramuscular injections, WHO report) is given as 98%.

Regarding `C[C@]12CC[C@H]3[C@@H](CCC4=CC(=O)CC[C@@]43C)[C@@H]1CC[C@@H]2O` [testosterone], the “oral absorption / androgenic effect (in words)” value in data set [8] is listed as “readily absorbed after oral administration, but demonstrates little androgenic effect due to rapid hepatic metabolism”.
